Reference: PubChem BioAssay (NCI)
Where “and” joins values, the source holds several entries; their conditions need not be identical. Equal values may be shown once.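 96-well plates; 48 h exposure; 5 concentrations. Endpoints by linear interpolation between flanking doses. Not reached: highest tested concentration assigned. GI50 marks 50% less growth. Definition used: TGI = concentration required for complete inhibition of growth.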

Tests used:
Assay in all cases: NCI tumour cell line growth inhibition, 48 h
[1] = system: A549 NSCLC
[2] = system: HL-60(TB) leukemia
[3] = system: HS 578T breast
[4] = system: IGROV1 ovarian
[5] = system: MDA-MB-435
[6] = system: MOLT-4 leukemia
[7] = system: NCI-H460 lung
[8] = system: NCI-H522 lung
[9] = system: NCI/ADR-RES ovarian
[10] = system: OVCAR-3 ovarian

| SMILES | GI50 [1] | GI50 [2] | TGI [2] | GI50 [3] | TGI [3] | GI50 [4] | GI50 [5] | GI50 [6] | GI50 [7] | GI50 [8] | GI50 [9] | GI50 [10] | TGI [1] | TGI [4] | TGI [5] [µM] | TGI [6] | TGI [7] | TGI [8] | TGI [9] [µM] | TGI [10] [µM] |
| --- | --- | --- | --- | --- | --- | --- | --- | --- | --- | --- | --- | --- | --- | --- | --- | --- | --- | --- | --- | --- |
| COC(C(=O)C(O)C(C)O)C1Cc2cc3cc(OC4CC(OC5CC(O)C(O)C(C)O5)C(O)C(C)O4)c(C)c(O)c3c(O)c2C(=O)C1OC1CC(OC2CC(O)C(OC3CC(C)(O)C(O)C(C)O3)C(C)O2)C(O)C(C)O1 (stereo unspecified) | 0.0126 µg/mL and 0.00127 µg/mL | 0.00227 µg/mL | 0.188 µg/mL | 0.0164 µg/mL | 0.134 µg/mL | 0.0112 µg/mL and 0.00231 µg/mL | 0.0121 µg/mL and 0.339 µg/mL | 0.0112 µg/mL and 0.00269 µg/mL | 0.0112 µg/mL and 0.000613 µg/mL | 0.0112 µg/mL and 0.000596 µg/mL | 3.87 µg/mL and 0.0809 µg/mL | 0.0112 µg/mL and 0.00413 µg/mL | – | – | – | – | – | – | – | – |
| CCOC(=O)c1ccc2c(c1)nc(/C=C/c1ccc(Cl)cc1)n2-c1cc(C(C)(C)C)[nH]n1 | 3.64 µM | 39.9 µM | > 100 µM | 3.6 µM | 61.8 µM | 5.09 µM | 10.5 µM | 4.74 µM | 6.28 µM | 2.84 µM | 10.1 µM | 2.86 µM | 19.7 µM | 33.8 µM | > 100 | > 100 µM | > 100 µM | 10.6 µM | > 100 | 8.26 |
| Cc1[nH]c(C(=O)Nc2ccccc2OC2CCNCC2)c(Cl)c1Cl | 1.22 µM | 1.05 µM | 2.26 µM | 0.898 µM | 1.9 µM | 0.856 µM | 0.883 µM | 1.31 µM | 0.984 µM | 0.866 µM | 1.27 µM | 0.931 µM | 3.35 µM | 1.73 µM | 1.62 | 3.73 µM | 1.93 µM | 1.74 µM | 3.57 | 1.68 |
| CCN(Cc1ccccc1Cl)c1ccc(CO)c(Cl)c1 | 3.06 µM | 13.9 µM | 33.8 µM | 16 µM | 38.7 µM | < 0.0418 µM | 9.19 µM | 15.8 µM | 0.296 µM | 11.5 µM | 12.2 µM | 0.774 µM | 18.7 µM | 0.138 µM | 23.9 | 38.1 µM | 11.1 µM | 25.4 µM | 26.5 | 4.32 |
| CCC(CCC(C)C1CCC2C3CC=C4CC(OC5OC(CO)C(O)C(O)C5O)CCC4(C)C3CCC12C)C(C)C (stereo unspecified) | – | – | > 100 µM | – | > 100 µM | – | – | – | – | – | – | – | > 100 µM | > 100 µM | > 100 | > 100 µM | > 100 µM | > 100 µM | > 100 | > 100 |
| NC(=S)N/N=C/c1ccc(N)cn1 | – | – | 5.44 µM | – | > 10 µM | – | – | – | – | – | – | – | > 10 µM | > 10 µM | > 10 | > 10 µM | > 10 µM | > 10 µM | > 10 | > 10 |
| Clc1cc2c(nn1)Nc1ccccc1S2 | > 100 µM | > 100 µM | > 100 µM | 38.4 µM | > 100 µM | > 100 µM | > 100 µM | > 100 µM | > 100 µM | > 100 µM | > 100 µM | > 100 µM | > 100 µM | > 100 µM | > 100 | > 100 µM | > 100 µM | > 100 µM | > 100 | > 100 |
| O=C(c1ccco1)c1c(C(F)(F)F)nc2ccc(C(F)(F)F)cc2[n+]1[O-] | > 64.4 µM | > 100 µM | > 100 µM | 21.2 µM | 54.5 µM | 35.6 µM | > 81.6 µM | > 100 µM | > 63.2 µM | 62.1 µM | 44.2 µM | 28 µM | > 100 µM | > 92.7 µM | > 100 | > 100 µM | > 100 µM | > 100 µM | > 100 | > 75.1 |
| CCCCCCCCCCCCCCCC(=O)N[C@H](/C=C/[C@H](O)CCCCCCCCCCCCC)CO | > 100 µM | > 100 µM | > 100 µM | > 100 µM | > 100 µM | > 100 µM | > 100 µM | > 100 µM | > 100 µM | > 100 µM | > 100 µM | > 100 µM | > 100 µM | > 100 µM | > 100 | > 100 µM | > 100 µM | > 100 µM | > 100 | > 100 |
| C/C(=N\NC(=S)N1CCN(C2CCCCCC2)CC1)c1ccccn1 | – | < 0.001 µM | – | – | 4.63 µM | < 0.001 µM | – | < 0.001 µM | – | < 0.001 µM | – | – | 1.86 µM | 3.7 µM | 2 | 1.52 µM and 3.72 µM | 1.45 µM | 0.12 µM and 0.267 µM | 0.676 | 1.74 |
| N#Cc1ccsc1NC(=O)COC(=O)c1cccc(S(=O)(=O)N2CCc3ccccc32)c1 | 45.2 µM | 37.9 µM | > 100 µM | > 100 µM | > 100 µM | 7.84 µM | 41.4 µM | 6.68 µM | 18.2 µM | 34.8 µM | 27.8 µM | 53.7 µM | > 100 µM | > 100 µM | > 100 | > 100 µM | > 100 µM | > 100 µM | > 100 | > 100 |
| Clc1nc(Cl)c2c3c(sc2n1)CCCC3 | > 24.4 µM | > 27.4 µM | > 100 µM | – | > 100 µM | 3.85 µM | 3.65 µM | 3.61 µM | > 100 µM | 1.64 µM | 5.29 µM | 3.3 µM | > 100 µM | > 100 µM | > 100 | > 100 µM | > 100 µM | > 26 µM | > 100 | > 30.4 |
| C=C1COC(O)(C2OCOC(C3CC(=O)NC(=O)C3)C2O)C1C (stereo unspecified) | 0.00282 µM | 0.00217 µM | 0.0123 µM | 0.00428 µM | 0.0265 µM | 0.00383 µM and 0.0166 µM | 0.00481 µM | 0.00124 µM | 0.0107 µM | 0.00201 µM | – | – | 0.0303 µM and 0.0326 µM | 0.0442 µM and 0.0773 µM | 0.037 | 0.00804 µM and 0.00522 µM | 0.18 µM and 0.172 µM | 0.00684 µM and 0.00593 µM and 0.0137 µM | 0.163 | 0.046 |
| O=S(=O)(c1ccc(Br)cc1)N1CCN(S(=O)(=O)c2ccc(Br)cc2)CC1 | – | – | > 100 µM | – | > 100 µM | – | – | – | – | – | – | – | > 100 µM | > 100 µM | > 100 | 26.7 µM | – | > 100 µM | > 100 | > 100 |
